Entries after “also recorded” stand apart in the source; their conditions may differ. Like-named read-outs stand apart in the source and are kept apart here.
Tests used:
[1] = Phase 2 study: AST and ALT shift evaluation; type: in vivo, human (infants)
Procedure: Safety and tolerability was evaluated by clinical assessment of safety data, including laboratory data, electrocardiographic data, vital signs, and adverse events (AEs).
In study Part 1, no formal sample size calculation was performed. For Part 2, it was calculated that a sample size of 16 patients in each active treatment group would provide >90% power to detect a 50% reduction (mean ratio of 0.5) in RSV viral load AUC with AK0529 as compared with placebo, using a one‐sided significance level of 0.05, two‐sample equal variance t‐test, and assuming a 0.3 variation coefficient of the placebo for viral load. These assumptions were based on viral challenge models of early treatment in adults.[3] For the transaminase shift analysis, the Chi‐square test and Fisher's exact test were used, as appropriate, to test for differences between active treatment and placebo.

[2] = Phase 2 study: population pharmacokinetics of plasma concentrations; type: in vivo, human (infants); conditions: for Tmax / AUC(0-t) / Cmax / AUC(0-inf) / half-life: human, plasma; for Cmax: read-out: Cmax mean (CV %); for AUC(0-inf): read-out: AUC0–∞ mean (CV %); for half-life: read-out: t½ mean (CV %) (converted)
Procedure: Individual plasma concentrations of the active drug were measured, and PK were determined using nonlinear mixed‐effect models. In all cases, when new data were available, the updated model was used for evaluation under the assumption of an allometric coefficient of 0.75 and incorporation of CYP maturation. Using a Population PK (Pop‐PK) analysis approach, AUC0–∞, clearance (CL/F), volume of distribution (Vc/F), and other PK parameters were estimated for AK0529. Maximum plasma concentration (Cmax) was computed from the predicted profiles.
Clinical safety and tolerability were assessed on the safety population, comprising all subjects who received ≥1 dose of study drug. Clinical variables were evaluated in the full analysis population, which included all subjects who received a dose of study drug and for whom ≥1 post‐treatment assessment was available. Pharmacokinetic analysis was performed on those subjects in the safety population for whom both pre‐ and post‐dose samples were available.

[3] = system: clinical RSV isolates (31 A-subtypes and 29 B-subtypes); assay: Cytopathic and plaque reduction assays against clinical RSV isolates; type: cell-based
Procedure: AK0529 (ziresovir) is a potent, selective, and orally bioavailable RSV F protein inhibitor.[9]
The EC90 value was determined in the presence of the known plasma protein binding in the CPE assay. […] To achieve a target efficacious concentration in humans, it was expected that a minimum target of 5 × EC90 value, or approximately 40 ng/mL should be attained. To maintain the effectiveness, this target Ctrough level was required to be achieved across the dosing interval.

[4] = AK0529 n = 38, worst shift category
[5] = AK0529 n = 39, worst shift category
[6] = Part 1, single oral dose 0.5 mg/kg
[7] = Part 1, single oral dose 1.0 mg/kg
[8] = Part 1, single oral dose 2.0 mg/kg
[9] = Part 1, single oral dose 4.0 mg/kg

Cc1ccc2nc(N3CCS(=O)(=O)c4ccccc4C3)nc(NCC3(N)COC3)c2c1 [AK0529, ziresovir]
ALT shift: Abnormal CS to abnormal NCS ([1]; AK0529 n = 38): 0 n (%)
ALT shift: Abnormal CS to normal ([1]; AK0529 n = 38): 0 n (%)
ALT shift: Abnormal NCS to normal ([1]; AK0529 n = 38): 1 (2.6%) n (%)
ALT shift: No change ([1]; AK0529 n = 38): 34 (89.5%) n (%)
ALT shift: Abnormal NCS to abnormal CS [1, 4]: 1 (2.6%) n (%)
ALT shift: Normal to abnormal CS [1, 4]: 1 (2.6%) n (%)
ALT shift: Normal to abnormal NCS [1, 4]: 1 (2.6%) n (%)
AST shift: Abnormal CS to abnormal NCS ([1]; AK0529 n = 39): 1 (2.6%) n (%)
AST shift: Abnormal CS to normal ([1]; AK0529 n = 39): 1 (2.6%) n (%)
AST shift: Abnormal NCS to normal ([1]; AK0529 n = 39): 2 (5.1%) n (%)
AST shift: No change ([1]; AK0529 n = 39): 29 (74.4%) n (%)
AST shift: Abnormal NCS to abnormal CS [1, 5]: 0 n (%)
AST shift: Normal to abnormal CS [1, 5]: 2 (5.1%) n (%)
AST shift: Normal to abnormal NCS [1, 5]: 4 (10.3%) n (%)
association between exposure to active drug and deterioration / shifts in transaminase levels (ALT, AST) ([1]; vs placebo, Fisher's exact p = 0.516 (ALT), p = 0.644 (AST)): No statistically significant differences; also recorded: no association was found
elimination half-life in subjects aged <6 months ([2]; Part 1, compared with older subjects): slightly longer
time to reach Cmax ([2]; Part 1, single doses except 4 mg/kg): around 4 h
change in AUC with dose ([2]; Part 1, single doses up to 4 mg/kg, no apparent plateau): dose‐dependent increase
targeted drug exposure ([2]; Part 2, 2 mg/kg bid): reached
dose proportionality of mean Cmax and AUCτ ([2]; Part 2, across the dose range tested): approximate dose proportionality
increase in AUCτ from Days 1 to 5 (accumulation) ([2]; Part 2, bid dosing): approximately 1.5 fold
median trough ([2]; Part 2, bid dosing): 12 h
Tmax ([2]; oral, Part 2, Days 1 and 5, read-out: median tmax): 2.5 to 3.8 h
AUC(0-t) ([2]; oral, Part 1, single doses up to 4 mg/kg, read-out: AUC0–24): ≤ 7780 ng·h/mL
Tmax ([2]; po, 0.5 mg/kg, Part 1, single oral dose 0.5 mg/kg, read-out: tmax median (range)): 4.5 h
Tmax ([2]; po, 1 mg/kg, Part 1, single oral dose 1.0 mg/kg, read-out: tmax median (range)): 4.3 h
Tmax ([2]; po, 2 mg/kg, Part 1, single oral dose 2.0 mg/kg, read-out: tmax median (range)): 3.3 h
Tmax ([2]; po, 4 mg/kg, Part 1, single oral dose 4.0 mg/kg, read-out: tmax median (range)): ~2 h
Cmax ([2]; Part 1, single oral dose 0.5 mg/kg, N 4, all younger than 6 months): 158 ng/mL
AUC(0-t) ([2]; Part 1, single oral dose 0.5 mg/kg, read-out: AUC0–24 mean (CV %)): 1770 ng·h/mL
AUC(0-inf) [2, 6]: 2060 ng·h/mL
half-life [2, 6]: 7.7 h
Cmax ([2]; Part 1, single oral dose 1.0 mg/kg, N 6): 302 ng/mL
AUC(0-t) ([2]; Part 1, single oral dose 1.0 mg/kg, read-out: AUC0–24 mean (CV %)): 2890 ng·h/mL
AUC(0-inf) [2, 7]: 3150 ng·h/mL
half-life [2, 7]: 5.7 h
Cmax ([2]; Part 1, single oral dose 2.0 mg/kg, N 4): 375 ng/mL
AUC(0-t) ([2]; Part 1, single oral dose 2.0 mg/kg, read-out: AUC0–24 mean (CV %)): 3790 ng·h/mL
AUC(0-inf) [2, 8]: 4200 ng·h/mL
half-life [2, 8]: 6.2 h
Cmax ([2]; Part 1, single oral dose 4.0 mg/kg, N 3 incl. one subject of Study AK0529-1002): 888 ng/mL
AUC(0-t) ([2]; Part 1, single oral dose 4.0 mg/kg, read-out: AUC0–24 mean (CV %)): 7780 ng·h/mL
AUC(0-inf) [2, 9]: 8280 ng·h/mL
half-life [2, 9]: 6 h
potency against various RSV clinical isolates compared with laboratory strains [3]: remained the same

From paper PMC10368966, “Safety and efficacy of AK0529 in respiratory syncytial virus‐infected infant patients: A phase 2 proof‐of‐concept trial” (Influenza and Other Respiratory Viruses, 2023)
